From publication PMC9916441, “Resveratrol Derivative Exhibits Marked Antiproliferative Actions, Affecting Stemness in Pancreatic Cancer Cells” (International Journal of Molecular Sciences, 2023)
Where two headings read alike, the source gives them in different places.

Legend:
Capan-2 [1] = assay: Apoptosis assay, annexin-V staining by flow cytometry; type: cell-based, human; conditions: 24 h
Experimental: (§1) The apoptosis assay was performed essentially as previously described. the analyses were performed using a CytoFLEX flow cytometer, using the FL1 detector in linear mode and the CytoExpert software (Beckmann Coulter, Milano, Italy).

BxPC-3 [2] = assay: as above; type: cell-based, human; conditions: 24 h
Experimental: as §1

AsPC-1 [3] = assay: as above; type: cell-based, human; conditions: 24 h
Experimental: as §1

[4] = Enzymatic stability in simulated intestinal fluid (SIF) with pancreatin; type: in vitro ADME; conditions: SIF pH 6.8 with pancreatin, 37 °C
Experimental: (§2) The SGF and SIF, containing pepsin and pancreatin, respectively, were prepared following the USP specifications. The reactions were carried out in a shaking water bath at 37 °C. The drug stock solution (10 μL of a 10^−4 M) was added to the preheated gastrointestinal fluids and, at fixed time points (0, 15, 30, and 60 min for SGF and 0, 60, 120, and 180 min for SIF), 20 μL of the media were mixed with 200 μL of cold acetonitrile containing 0.5% v/v of formic acid. The samples were centrifuged for 10 min at 5000× g and the supernatants were analyzed using HPLC. The relative difference (RD%) was used to predict the amount of compound decomposed in the presence of gastrointestinal fluids.

Capan-2 [5] = assay: Colony formation assay; type: cell-based, human; conditions: Capan-2, 20 µM, 72 h treatment
Experimental: (§3) A colony formation assay was performed as previously described. Briefly, the PC cells were seeded in 6-well plates, incubated for 24 h, and then treated for 72 h with 20 μM DF5, DF12, and RSV or with vehicle (DMSO) as indicated. After 4 days, following methanol fixation and crystal violet staining, the colonies of at least 30 cells were counted.

BxPC-3 [6] = assay: Colony formation assay; type: cell-based, human; conditions: BxPC-3, 20 µM, 72 h treatment
Experimental: as §3

AsPC-1 [7] = assay: Colony formation assay; type: cell-based, human; conditions: AsPC-1, 20 µM, 72 h treatment
Experimental: as §3

[8] = Enzymatic stability in simulated gastric fluid (SGF) with pepsin; type: in vitro ADME; conditions: SGF pH 1.2 with pepsin, 37 °C
Experimental: as §2

Cyclin D3 = assay: Western blot of cyclin D3 in PC cell lines; type: cell-based, human; conditions: 50 μM
Experimental: (§4) The PC cell lines treated with 50 μM DF5, RSV, or with vehicle (DMSO) were lysed in a cell lysis buffer containing PMSF, protease inhibitors cocktails, and phosphatase inhibitors. The protein lysate quantification and immunoblot analyses were performed as previously described.

[9] = test system: poly-(ADP-ribose) polymerase (PARP); assay: Western blot of PARP cleavage in PC cell lines; type: cell-based, human; conditions: vs untreated cells
Experimental: as §4

Capan-2 [10] = assay: Flow cytometry immunophenotyping of CD133+EpCAM+ cancer stem-like subpopulation; type: cell-based, human; conditions: Capan-2, 20 μM, 72 h
Experimental: (§5) The expression of CD133 and EpCAM surface antigens was evaluated using flow cytometry. Briefly, the PC cells were seeded in 6-well plates and treated for 72 h with 20 μM DF5, RSV, or with vehicle (DMSO). After treatment, the cells were collected in PBS and stained at room temperature in the dark for 30 min with PE-CD133, FITC-EpCAM antibodies, and Reactive Dye. After labeling, the samples were washed in PBS by centrifugation at 1500 rpm for 10 min, to remove excess antibodies. Flow cytometer performance, stability, and data reproducibility were daily checked by using the CS&T quality control Module (BD Biosciences). The gating strategy and the evaluation of non-specific fluorescence was determined using fluorescence minus one (FMO) controls. The data were acquired with FACSVerse analyzer equipped with a volumetric count module (BD Biosciences, San Jose, CA, USA) and are expressed as the percentage of positive cells.

BxPC-3 [11] = assay: as above; type: cell-based, human; conditions: BxPC-3, 20 μM, 72 h
Experimental: as §5

AsPC-1 [12] = assay: as above; type: cell-based, human; conditions: AsPC-1, 20 μM, 72 h
Experimental: as §5

[13] = test system: AsPC-1, BxPC-3 and Capan-2 PC cell lines; assay: Cell cycle analysis by flow cytometry; type: cell-based, human; conditions: 50 μM, 24 h
Experimental: To perform the cell cycle analysis, the PC cells (3 × 10^5) were collected, fixed in 70% cold ethanol, and kept at 4 °C overnight. The collected cells were incubated at 4 °C overnight in 5 μg/mL PI (final concentration) and 100 μg/mL RNAse (final concentration). The cell cycle profiles were analyzed as previously described.

cyclin B1/CDK1 complex = assay: Western blot of cyclin B1, Cdc2/Cdk1 and p-Cdc2 (Thr161) in PC cell lines; type: cell-based, human; conditions: 50 μM
Experimental: as §4

PAMPA-GI permeability = type: in vitro ADME; conditions: for Papp at 16 h, 500 µM: PAMPA, 16 h incubation, read-out: Permeability, Pe
Experimental: A PAMPA was used to evaluate the passive intestinal absorption of DF5. The system consisted in a 96-well, MultiScreen-IP PAMPA filter plate (donor plate) equipped with a PVDF membrane filter and a 96-well PTFE acceptor plate. The PVDF membrane was coated with 5 µL of a 2% w/v lecithin in n-dodecane solution. […] Donor and acceptor solutions, both containing 5% of DMSO v/v%, were employed to avoid precipitation of the drug. The system was assembled placing the drug-filled donor plate into the acceptor plate and incubated at room temperature for 16 h. Each solution was analyzed using HPLC and the permeability (Pe, nm/s) was determined as previously reported.

p-SER^139H2AX = assay: Western blot of phospho-H2AX (γH2AX) in PC cell lines; type: cell-based, human
Experimental: as §4

Cc1ccc(/C=C/c2ccc(O)cc2)cc1 [DF5]
apoptosis induction (Annexin V+ cells) (Capan-2 [1]; Capan-2, 20 μM): statistically significant apoptosis | apoptosis induction (Annexin V+ cells) (Capan-2 [1]; Capan-2, 50 μM): significant induction of apoptosis | apoptosis induction (Annexin V+ cells) (BxPC-3 [2]; BxPC-3, 20 μM): neither compound affected apoptosis | apoptosis induction (Annexin V+ cells) (BxPC-3 [2]; BxPC-3, 50 μM): significant induction of apoptosis | apoptosis induction (Annexin V+ cells) (AsPC-1 [3]; AsPC-1, 20 μM): statistically significant apoptosis | apoptosis induction (Annexin V+ cells) (AsPC-1 [3]; AsPC-1, 50 μM): significant induction of apoptosis | RD% (relative difference) ([4]; 60 min): 8.12% | RD% (relative difference) ([4]; 120 min): 9.20% | RD% (relative difference) ([4]; 180 min): 9.36% | effect on clonogenicity (colony formation) (Capan-2 [5]): more drastic, prominent, and consistent effects on PC cell clonogenicity | effect on clonogenicity (colony formation) (BxPC-3 [6]): totally abolish colony formation | effect on clonogenicity (colony formation) (AsPC-1 [7]): totally abolish colony formation | RD% (relative difference) ([8]; 15 min): 4.36% | RD% (relative difference) ([8]; 30 min): 7.10% | RD% (relative difference) ([8]; 60 min): 8.87% | effect on cyclin D3 expression (Cyclin D3): clear-cut reduction or even an abolishment in the expression of cyclin D3 | effect on cleaved:uncleaved PARP ratio ([9]; AsPC-1, 50 μM): strong increase in cleaved:uncleaved PARP ratios | effect on cleaved:uncleaved PARP ratio ([9]; BxPC-3, 50 μM): minimal effects on the PARP cleavage ratio | effect on cleaved:uncleaved PARP ratio ([9]; Capan-2, 50 μM): strong increase in cleaved:uncleaved PARP ratios | effect on percentage of CD133+EpCAM+ cancer stem-like subpopulation (Capan-2 [10]): sharp and statistically significant reduction | effect on percentage of CD133+EpCAM+ cancer stem-like subpopulation (BxPC-3 [11]): statistically significant impact | effect on percentage of CD133+EpCAM+ cancer stem-like subpopulation (AsPC-1 [12]): sharp and statistically significant reduction | effect on cells in G0/G1 phase ([13]; across the three PC cell lines, vs untreated cells): statistically significant accumulation of cells at the G0/G1 phase | effect on cells in G2/M phase ([13]; three PC cell lines, in Capan-2 it did not reach statistical significance): drastic depletion of cells in the G2/M phase | effect on expression of the cyclin B1/CDK1 complex (cyclin B1/CDK1 complex; AsPC-1 and Capan-2, also Cdc2/CDK1 dephosphorylation at Thr-161): reduction in the expression of the cyclin B1/CDK1 complex | effect on expression of the cyclin B1/CDK1 complex (cyclin B1/CDK1 complex; BxPC-3): much less evident | Papp at 16 h, 500 µM (PAMPA-GI permeability; pH 5 (donor and acceptor)): 60.2 nm/s | Papp at 16 h, 500 µM (PAMPA-GI permeability; pH 6.5 (donor and acceptor)): 90 nm/s | Papp at 16 h, 500 µM (PAMPA-GI permeability; pH 7.4 (donor and acceptor)): 25.9 nm/s | Classification (GI permeation) (PAMPA-GI permeability; pH 5): Pe+ (Pe+ (indicative of high GI permeation): Pe (nm s^−1) > 10) | Classification (GI permeation) (PAMPA-GI permeability; pH 6.5): Pe+ (Pe+ (indicative of high GI permeation): Pe (nm s^−1) > 10) | Classification (GI permeation) (PAMPA-GI permeability; pH 7.4): Pe+ (Pe+ (indicative of high GI permeation): Pe (nm s^−1) > 10) | activation (phosphorylation) of H2AX (p-SER^139H2AX; AsPC-1, 50 μM): marked activation of H2AX | activation (phosphorylation) of H2AX (p-SER^139H2AX; BxPC-3, 50 μM): negligible activation | activation (phosphorylation) of H2AX (p-SER^139H2AX; Capan-2, 50 μM): less marked
